{"source": "patent US20020142287A1", "about": "“High throughput assay to detect inhibitors of the map kinase pathway” (priority 2000, published 2002)", "key": {"SNB-19 cells [1]": {"tested_on": "SNB-19 cells", "test": "Growth-stimulated induction of c-fos and invasion-associated mRNA in quiescent cells plated into fresh growth media, Northern analysis", "assay_type": "cell-based, human", "details": "for effect on expression of uPA, GnT-V and c-ets-1 mRNA induced by growth stimulation: 2 and 6 hr after plating into fresh growth media", "procedure": "(§1) Procedure for Northern Blot. Surgical specimens were immediately frozen in liquid nitrogen upon resection. Total RNA was isolated from clinical glioma specimens and cultured brain tumor cells using guanidium isothiocyanate followed by […] centrifugation. 10-20 μg of total RNA per tumor cell line per lane were electrophoresed in an agarose-formaldehyde gel and transferred to Duralon nylon membranes (Stratagene, La Jolla, Calif.). After UV cross-linking, the blots were hybridized with a ^32P-radiolabeled cDNA probe synthesized by using a random priming kit (Stratagene, La Jolla, Calif.) and ExpressHyb solution (Clontech, Palo Alto, Calif.). The blots were then exposed to X-OMAT film (Kodak, Rochester, N.Y.) and the films were developed appropriately.\nModulators of the MAPK pathway also modulated the growth-stimulated mRNA expression of c-Fos and invasion-related protein MRNA expression. Quiescent SNB-19 cells were plated in fresh growth media either in the presence of 80 μM PD98059, a MEK/MAPKK inhibitor, or the absence of inhibitor, as a control. Induction was measured by observing MRNA expression over time (FIG. 6).\nQuiescent SNB-19 cells were growth induced by plating into fresh growth media for 2 and 6 hr. c-Fos expression was monitored by observing the mRNA levels of the downstream genes uPA, GNT-V, and c-ets-1 (see FIG. 8)."}, "[2]": {"tested_on": "c-fos promoter/luciferase gene transfectant (clone 60) of SNB-19 glioma cells", "test": "Luciferase mRNA expression in stable c-fos promoter/luciferase gene transfectant, Northern analysis", "assay_type": "cell-based, human", "details": "1, 2, 3, 6, and 24 hr in the presence of inhibitor", "procedure": "A quiescent c-fos promoter/luciferase gene transfectant (clone 60) was plated into fresh growth media and incubated for 1, 2, 3, 6, and 24 hr in the presence of MEK/MAPKK inhibitors, and the cells were harvested for detection of luciferase mRNA expression by Northern analysis. 10 μg of total RNA per lane were used.\nThe 498 bp promoter region of the human c-Fos gene was amplified by genomic PCR using sense primer 5′-[…]-3′ (SEQ ID No. 7) and antisense primer 5′-[…]-3′ (SEQ ID No. 8), ligated into the pCR II vector (Invitrogen, San Diego, Calif.). […] Antisense orientation of the c-fos promoter/pCR II plasmid was digested with Hind III and Xho I restriction enzymes and the digested fragment was ligated into the Hind III and Xho I sites of the luciferase vector pGL3-basic (Promega, Madison, Wis.). The c-fos promoter/pGL3 plasmid DNA was digested with Sma I and Xba I and the digested fragment was ligated into the Nru I and Xba I sites of the pcDNA 3 vector (Invitrogen). This final construct contains the luciferase gene under control of the c-fos promoter instead of the control of the CMV promoter. The plasmid DNA was stably transfected into human glioma SNB-19 cells using the cationic liposome system, DOTAP (Boehringer Mannheim, Indianapolis, Ind.). The transfected cells were further cultured for 3 weeks in selection medium containing 800 μg/ml of G418 and then individual clones were isolated with cloning rings. Isolated clones were further cultured for 4 weeks in selection medium and were examined for luciferase gene expression by Northern analysis. […] Three representative clones (34, 56, and 60) were further characterized.\nThe suppression of luciferase gene expression by inhibitors of MAPK pathway in the stable transfectants was determined."}, "SNB-19 cells [3]": {"tested_on": "SNB-19 cells", "test": "Suppression of PDBu-mediated mRNA induction by a MAPKK inhibitor, Northern analysis", "assay_type": "cell-based, human", "procedure": "as §1\nThe assay was modified for use in the identification of compounds that can inhibit gene expression. To identify compounds that may affect the growth, migration or invasivity of tumor cells, the assay described below is provided. To activate the quiescent cells, SNB-19 glioma cells are cultured in the presence of 150 nM Phorbol 12, 13-dibutyrate (PDBu, Sigma Chemical Co.) for 24 hr. The cells are then contacted with a test compound that may affect expression of GnT-V, c-ets-1, uPA, MMP-1, or MMP-3. Compounds shown to inhibit expression of any, multiple, or all of the sequences are selected for further study. […]"}, "[4]": {"tested_on": "c-Fos protein in SNB-19 cells", "test": "Growth-stimulated c-Fos protein induction, Western blot", "assay_type": "cell-based, human", "details": "50 μM U0126, 1 μM FTI, 50 μM PD98059; for c-Fos protein induction: 0.5-8 hr after plating", "procedure": "Quiescent SNB-19 cells were plated into fresh growth media and incubated for 0.5, 1, 2, 3, 4, 6, and 8 hr in the presence of inhibitors of the MAPK pathway, and the cells were harvested for c-Fos protein analysis by Western blot. 20 μg of total protein per lane were used. c-Fos protein induction without inhibitors was shown as a control.\nProcedure for Western Blot. To detect c-Ets-1 and c-Fos protein expression in brain tumor cell lines, 20 μg of protein cell lysates were loaded on a 8% SDS-polyacrylamide gel immediately after boiling each sample in the presence of 2% mercaptoethanol. After electrophoresis, proteins were transferred to a PVDF membrane and the membrane was blocked with 5% BSA in PBS. The membrane was then incubated with either a 1:10,000 dilution of monoclonal anti-human c-Ets-1 antibody (Clone 47, Transduction Laboratory, Ky.) or anti-human c-Fos antibody (Santa Cruz Biotechnology, Inc.) in Tris-buffered saline pH 7.4 (TBS) containing 2% BSA and 0.1% Tween 20 for 1 h at room temperature. The membrane was then washed with TBS containing 2% BSA and 0.1% Tween 20 for 10 min, followed by washing twice with 0.1% Tween 20 in TBS. Next, the membrane was incubated with a 1:10000 dilution of horseradish peroxidase-conjugated anti-mouse IgG (Amersham, UK) for 1 h at room temperature in 2% BSA in TBS containing 0.1% Tween 20. The membrane was then washed as described above, and developed with the ECL Chemiluminescence detection system (Amersham, UK) according to manufacturer's instructions."}, "SNB-19 cells [5]": {"tested_on": "SNB-19 cells", "test": "Induction of invasion-associated gene mRNA by phorbol ester, Northern analysis", "assay_type": "cell-based, human", "details": "150 nM PDBu, 24 hr incubation", "procedure": "as §1\nThe effects of a test compound, a phorbol ester (a Protein Kinase C (PKC) activator), on the coordinated expression of a panel of sequences was determined. SNB-19 cells were cultured in the presence of 150 nM phorbol 12, 13-dibutyrate (PDBu, Sigma Chemical Co.) for 24 hr. Expression of GnT-V, c-ets-1, uPA, MMP-1, and MMP-3 mRNA was then assayed by northern blot on total RNA from the cells. A panel of nucleic acid probes corresponding to GnT-V, c-ets-1, uPA, MMP-1, and MMP-3 were prepared as described above and utilized to detect expression of the corresponding mRNA in treated or untreated SNB-19 cells. […]"}, "[6]": {"tested_on": "p42/p44 ERK/MAPK proteins", "details": "50 μM U0126, SNB-19 cells", "procedure": "Quiescent SNB-19 cells were plated into fresh growth media and incubated for 0.5, 1, 2, 3, 4, 6, and 8 hr, and the cells were harvested for Northern analysis (FIG. 10A-10C) and Western blot analysis (FIG. 10D)."}, "MEK/MAPK Kinase (MAPKK)": {"tested_on": "MEK/MAPK Kinase (MAPKK)", "details": "cited from earlier work"}, "SNB-19 glioma cells": {"tested_on": "SNB-19 glioma cells", "details": "data not shown"}}, "note": "“Also recorded” adds a separate entry of the source.", "data": [{"smiles": "COc1cccc(-c2cc(=O)c3ccccc3o2)c1N", "note": "[PD98059, 2′-amino-3′-methoxyflavone]", "values": [{"measurement": "growth-stimulated induction of c-fos, c-ets-1, GnT-V, and uPA mRNA expression", "setting": "SNB-19 cells [1]; 80 μM PD98059, 0.5-8 hr after plating into fresh growth media", "value": "suppression; also recorded: suppressed"}, {"measurement": "luciferase mRNA expression", "setting": "[2]", "value": "slightly suppressed"}, {"measurement": "luciferase mRNA expression", "setting": "[2]; listed as PD98056", "value": "suppress"}, {"measurement": "PDBu-induced GnT-V, c-ets-1, MMP-1, and MMP-3 mRNA induction (b19 also uPA)", "setting": "SNB-19 cells [3]; 150 nM PDBu 24 hr, 15 and 80 μM PD98059, 15 μM", "value": "completely abolished"}, {"measurement": "uPA mRNA expression in PDBu-stimulated cells", "setting": "SNB-19 cells [3]; 150 nM PDBu, PD98059 15 and 80 μM", "value": "decreased in a dose-dependent manner"}, {"measurement": "potency of inhibition of c-Fos protein induction (rank order)", "setting": "[4]", "value": "50 μM U0126>1 μM FTI>50 μM PD98059"}, {"measurement": "c-Fos protein induction", "setting": "[4]", "value": "weak suppression"}]}, {"smiles": "COC[C@H]1OC(=O)c2coc3c2[C@@]1(C)C1=C(C3=O)[C@@H]2CCC(=O)[C@@]2(C)C[C@H]1OC(C)=O", "note": "[Wortmannin]", "values": [{"measurement": "effect on expression of uPA, GnT-V and c-ets-1 mRNA induced by growth stimulation", "setting": "SNB-19 cells [1]", "value": "no effect"}]}, {"smiles": "CCCC(=O)O[C@@H]1[C@@H](C)[C@@]2(O)[C@@H](C=C(CO)C[C@]3(O)C(=O)C(C)=C[C@@H]23)[C@@H]2C(C)(C)[C@]12OC(=O)CCC", "note": "[PDBu, Phorbol 12, 13-dibutyrate]", "values": [{"measurement": "induction of GnT-V, c-ets-1, uPA, MMP-1, and MMP-3 mRNA expression", "setting": "SNB-19 cells [5]", "value": "marked induction; also recorded: induced"}]}, {"smiles": "N#CC(=C(/N)Sc1ccccc1N)/C(C#N)=C(\\N)Sc1ccccc1N", "note": "[U0126]", "values": [{"measurement": "growth-stimulated induction of GnT-V, uPA and c-ets-1 mRNA expression", "setting": "SNB-19 cells [1]; 50 μM U0126, 0.5-8 hr after plating into fresh growth media", "value": "strongly suppressed; also recorded: suppressed the induction"}, {"measurement": "phosphorylation of p42/p44 ERK/MAPK", "setting": "[6]", "value": "completely inhibited"}, {"measurement": "luciferase mRNA expression", "setting": "[2]", "value": "greatly suppressed; also recorded: greater inhibition"}, {"measurement": "potency as MEK/MAPKK inhibitor relative to PD98059", "setting": "MEK/MAPK Kinase (MAPKK)", "value": 30, "unit": "times"}, {"measurement": "potency of inhibition of c-Fos protein induction (rank order)", "setting": "[4]", "value": "50 μM U0126>1 μM FTI>50 μM PD98059"}, {"measurement": "c-Fos protein induction", "setting": "[4]", "value": "completely inhibited"}, {"measurement": "adhesion-mediated protein tyrosine phosphorylation", "setting": "SNB-19 glioma cells", "value": "little effect"}]}, {"smiles": "COc1cc2ncnc(Nc3cccc(Br)c3)c2cc1OC", "note": "[PD153035]", "values": [{"measurement": "effect on expression of uPA, GnT-V and c-ets-1 mRNA induced by growth stimulation", "setting": "SNB-19 cells [1]", "value": "no effect"}]}]}
